Test results published in ChEMBL document CHEMBL2203002, “Fluorescent nitrile-based inhibitors of cysteine cathepsins” (Bioorg Med Chem Lett, 2012).
pKi: −log10 of the molar value.

Tests used:
Cathepsin B [1] = target: T1, Cathepsin B (Homo sapiens, UniProt P07858); test: Inhibition of human recombinant cathepsin B using Z-Arg-Arg-pNA as substrate after 10 mins by […] analysis
Cathepsin K [2] = target: T2, Cathepsin K (Homo sapiens, UniProt P43235); test: Inhibition of human recombinant cathepsin K using Z-Leu-Arg-AMC as substrate after 10 mins by fluorimetric analysis
T2 sequence (P43235 whole entry): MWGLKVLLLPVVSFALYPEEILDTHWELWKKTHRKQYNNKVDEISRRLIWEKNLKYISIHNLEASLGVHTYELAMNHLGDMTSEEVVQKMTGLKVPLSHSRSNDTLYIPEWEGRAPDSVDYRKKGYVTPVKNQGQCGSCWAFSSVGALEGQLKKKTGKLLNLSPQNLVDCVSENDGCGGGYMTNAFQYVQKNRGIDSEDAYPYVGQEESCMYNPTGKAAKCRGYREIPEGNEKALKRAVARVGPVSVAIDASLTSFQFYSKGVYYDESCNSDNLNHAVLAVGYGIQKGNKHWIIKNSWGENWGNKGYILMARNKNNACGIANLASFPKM

Cathepsin S [3] = target: T3, Cathepsin S (Homo sapiens, UniProt P25774); test: Inhibition of human recombinant cathepsin S using Z-Phe-Arg-pNA as substrate after 10 mins by […] analysis
Target sequence in this assay (P25774 whole entry): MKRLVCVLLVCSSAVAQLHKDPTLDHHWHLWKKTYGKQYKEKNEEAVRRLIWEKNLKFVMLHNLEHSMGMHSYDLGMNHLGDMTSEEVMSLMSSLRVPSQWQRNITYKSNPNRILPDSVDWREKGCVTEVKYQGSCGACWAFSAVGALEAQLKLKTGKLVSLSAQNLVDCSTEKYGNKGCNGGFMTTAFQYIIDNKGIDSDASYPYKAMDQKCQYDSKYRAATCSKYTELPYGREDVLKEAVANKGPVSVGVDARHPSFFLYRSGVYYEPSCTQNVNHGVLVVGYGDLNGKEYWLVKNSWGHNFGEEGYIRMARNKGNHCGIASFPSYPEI

[4] = Inhibition of human cathepsin L using Z-Phe-Arg-pNA as substrate after 10 mins by […] analysis
Cathepsin B [5] = target: T1, Cathepsin B; test: Inhibition of human recombinant cathepsin B using Z-Arg-Arg-pNA as substrate after 80 mins by […] analysis
Cathepsin K [6] = target: T2, Cathepsin K; test: Inhibition of human recombinant cathepsin K using Z-Leu-Arg-AMC as substrate after 80 mins by fluorimetric analysis
Cathepsin S [7] = target: T3, Cathepsin S; test: Inhibition of human recombinant cathepsin S using Z-Phe-Arg-pNA as substrate after 80 mins by […] analysis
Target sequence in this assay (P25774 whole entry): as above

Cathepsin B [8] = target: T1, Cathepsin B
Description: Binding affinity to human recombinant cathepsin B assessed as compound-enzyme half life

[9] = target: T4, Cathepsin K (Homo sapiens) (UniProt P43235)
T4 sequence (whole entry): T2 sequence (P43235 whole entry)
Description: Binding affinity to human recombinant cathepsin K assessed as compound-enzyme half life

Cathepsin S [10] = target: T3, Cathepsin S
Target sequence in this assay (P25774 115-331 limits assumed): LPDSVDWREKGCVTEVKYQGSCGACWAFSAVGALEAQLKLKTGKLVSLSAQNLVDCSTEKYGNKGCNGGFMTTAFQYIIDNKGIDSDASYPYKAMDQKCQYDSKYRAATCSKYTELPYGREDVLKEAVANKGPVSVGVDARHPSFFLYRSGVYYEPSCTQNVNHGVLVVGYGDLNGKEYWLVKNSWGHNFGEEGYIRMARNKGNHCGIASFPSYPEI
Description: Binding affinity to human recombinant cathepsin S assessed as compound-enzyme half life

[11] = Inhibition of human cathepsin L using Z-Phe-Arg-pNA as substrate incubated for 30 mins prior to substrate addition measured after 10 mins by […] analysis

Row | pKi (Cathepsin B [1]) | pKi (Cathepsin K [2]) | pKi (Cathepsin S [3]) | pKi [4] | pKi (Cathepsin B [5]) | pKi (Cathepsin K [6]) | pKi (Cathepsin S [7]) | T1/2 (Cathepsin B [8]) [min] | T1/2 [9] [min] | T1/2 (Cathepsin S [10]) [min] | pKi [11] | Structure (SMILES)
1 | < 4.40 | 6.64 | 5.08 | 4.74 |  |  |  |  |  |  |  | CCN(CC)c1ccc2cc(C(=O)NC3(C(=O)NCC#N)CCCCC3)c(=O)oc2c1
2 |  |  |  |  | 6.85 | 7.72 | 6.12 | 30 | 30 | 30 | 6.12 | CCN(CC)c1ccc2cc(C(=O)NC3(C(=O)N(C)N(C)C#N)CCCCC3)c(=O)oc2c1
3 | < 4.40 | 6.06 | 5.18 | < 4.40 |  |  |  |  |  |  |  | CN(C)c1cccc2c(S(=O)(=O)NC3(C(=O)NCC#N)CCCCC3)cccc12
